{"source": "patent US9463198B2", "about": "“Compositions and methods for reducing or preventing metastasis” (Infectious Disease Research Institute, priority 2013, dated 2016)", "key": {"MADB 106 tumor cells [1]": {"system": "MADB 106 tumor cells", "experiment": "MADB 106 lung tumor retention (LTR) in F344 rats", "format": "in vivo, F344 rat", "conditions": "for MADB 106 LTR, GLA vs PBS (time course): with epinephrine", "description": "GLA (IDRI, Seattle, Wash.), dissolved in stable emulsion (SE) (2000 μg/ml) was diluted in PBS for a final concentration of 3 μg/ml-200 μg/ml (depending on the relevant experiment). One-hundred μl from the chosen concentration were injected subcutaneously (s.c.) to each animal (0.3 μg-20 μg/animal), immediately, 4 h, 12 h, 24 h, 48 h, or 96 h prior to MADB106 tumor cell inoculation (depending on the relevant experiment).\nMADB 106 tumor cells metastasize only to the lungs, and lung tumor retention (LTR), which is highly indicative of the number of metastases that would have developed weeks later, is dependent upon NK cells in this model. Additionally, because the metastatic process of MADB106 is sensitive to NK activity predominantly during the first 24 h following inoculation, LTR is more reflective of in vivo NK activity levels than the number of actual metastases. The MADB 106 cell line was maintained in monolayer cultures in complete media (RPMI-1640 media supplemented with 10% heat-inactivated fetal calf serum (FCS), 50 μg/mL of gentamicin, 2 mM of 1-glutamine, 0.1 mM of non-essential amino-acids, and 1 mM of sodium pyruvate, (Biological Industries, Kibbutz Biet Haemek, Israel) in 100% humidity, 5% CO2 at 37° C. Cells were removed from the culture flask with trypsin solution (0.25% in PBS), and were washed with complete media. This cell line was used for both in vivo assessment of lung tumor retention and in vitro examination of NK cytotoxicity.\nTumor cell DNA radiolabeling for assessment of LTR was accomplished by adding 0.5 μCi/ml of ^125Iododeoxyuridine (^125IDUR, Danyel Biotech, Rehovot, Israel) to the cell culture for 24 h. For tumor cell injection, rats were lightly anesthetized with isoflurane, and 4×10^5/kg MADB106 tumor cells in 2 ml/kg PBS containing 0.1% bovine serum albumin (BSA) were injected into their tail vein. Some of the experiments also employed an additional 0.5 ml s.c. injection of epinephrine (1.8 mg/kg in females and 0.6 mg/kg in males) dissolved in a slow-release emulsion (4 parts PBS, 3 parts mineral oil (Sigma, Rehovot, Israel), and 1 part mannide-monooleate (a non-specific surface active emulsifier, Sigma, Rehovot, Israel)), for the amplification of MADB 106 retention in the lungs, allowing better group distinction. For assessment of LTR, animals were sacrificed with CO2, their lungs were removed 24 h after inoculation with ^125IDUR-labeled tumor cells, and placed in a γ-counter to assess percent radioactivity retained in this organ. LTR was calculated using the following formula: (radioactivity count of lung−background radioactivity)×100/(radioactivity count of the total injected cell suspension−background radioactivity).\nSeventy-five three months old F344 male rats were randomly divided into one of 7 experimental groups administered with PBS, SE, or GLA in a dose/animal of 0.3 μg, 0.7 μg, 2.5 μg, 10 μg, and 20 μg. Each animal was injected s.c. with 100 μl of drug according to its group assignment, and, 24 h later, MADB 106 cells were inoculated (as detailed in section 4 above). Each of these 7 groups was further sub-divided into two separate groups—one that was injected with epinephrine during tumor inoculation, and the second that was injected with vehicle. Twenty-four hours later, animals were sacrificed and lungs were extracted for LTR assessment (as detailed in section 4).\nIn the first experiment, 75 six-month old F344 male rats were randomly divided into one of 5 injection time points preceding tumor inoculation—0 h, 4 h, 12 h, 24 h, and 48 h. Each group was further sub-divided into one of three experimental drug groups—PBS, SE, and 2 μg GLA. Each animal was injected s.c. with 100 μl according to its relevant drug group, in its designated time point. At time 0 h, MADB106 cells were injected (as detailed in section 4), along with epinephrine. […]"}, "MADB 106 tumor cells [2]": {"system": "MADB 106 tumor cells", "experiment": "Three week study of MADB106 metastases development in the lungs", "format": "in vivo, F344 rat", "conditions": "male and female rats, 2 μg GLA s.c. 24 h before inoculation, counted three weeks later, GLA reducing the number", "description": "Eighty-six six-month old F344 rats (44 females) were divided into three experimental groups (2 μg GLA, SE, and PBS). Each animal was injected s.c. with 100 μl according to its group assignment. Twenty-four hrs later, animals were lightly anesthetized with isoflurane and 10^5 MADB 106 tumor cells (approximately 4×10^5/kg) were injected into their tail vein in 0.5 ml of PBS (supplemented with 0.1% BSA). Three weeks later, rats were killed, and their lungs removed and placed for 24 h in Bouin's solution (72% saturated picric acid solution, 23% formaldehyde (37% solution) and 5% glacial acetic acid). After being washed in ethanol, visible surface metastases were counted by a researcher uninformed of the origin of each lung."}}, "data": [{"compound": "CNC[C@H](O)c1ccc(O)c(O)c1", "note": "[epinephrine, reference compound]", "values": [{"measurement": "effect of epinephrine on LTR", "setting": "MADB 106 tumor cells [1]; s.c. slow-release emulsion given along with MADB 106 cell inoculation", "result": "increasing LTR levels"}]}, {"compound": "glucopyranosyl lipid adjuvant [GLA]", "values": [{"measurement": "MADB 106 LTR, GLA vs PBS (time course)", "setting": "MADB 106 tumor cells [1]; female rats, 2 μg GLA s.c. 24 h before inoculation, p<0.05", "result": "significant difference"}, {"measurement": "MADB 106 LTR, GLA vs PBS (time course)", "setting": "MADB 106 tumor cells [1]; female rats, 2 μg GLA s.c. 48 h before inoculation, p<0.05", "result": "significant difference"}, {"measurement": "MADB 106 LTR, GLA vs PBS (time course)", "setting": "MADB 106 tumor cells [1]; male rats, 2 μg GLA s.c. 4 h before inoculation, p<0.05", "result": "significant difference"}, {"measurement": "MADB 106 LTR, GLA vs PBS (time course)", "setting": "MADB 106 tumor cells [1]; male rats, 2 μg GLA s.c. 12 h before inoculation, p<0.0001", "result": "significant difference"}, {"measurement": "MADB 106 LTR, GLA vs PBS (time course)", "setting": "MADB 106 tumor cells [1]; male rats, 2 μg GLA s.c. 24 h before inoculation, p<0.0001", "result": "significant difference"}, {"measurement": "MADB 106 LTR, GLA vs PBS (time course)", "setting": "MADB 106 tumor cells [1]; male rats, 2 μg GLA s.c. 48 h before inoculation, p<0.0001", "result": "significant difference"}, {"measurement": "MADB 106 LTR in NK-depleted animals", "setting": "MADB 106 tumor cells [1]; male rats, NK depletion by anti-NKR-P1 mAb, 2 μg GLA or SE s.c. 24 h before inoculation", "result": "no effect"}, {"measurement": "MADB 106 LTR, additive effect of GLA over SE", "setting": "MADB 106 tumor cells [1]; male rats, epinephrine groups, 0.7 μg/animal s.c. 24 h before inoculation, p<0.05", "result": "significant improvements"}, {"measurement": "MADB 106 LTR, additive effect of GLA over SE", "setting": "MADB 106 tumor cells [1]; male rats, epinephrine groups, 2.5 μg/animal s.c. 24 h before inoculation, p<0.01", "result": "significant improvements"}, {"measurement": "MADB 106 LTR, additive effect of GLA over SE", "setting": "MADB 106 tumor cells [1]; male rats, epinephrine groups, 10 μg/animal s.c. 24 h before inoculation, p<0.01", "result": "significant improvements"}, {"measurement": "MADB 106 LTR, additive effect of GLA over SE", "setting": "MADB 106 tumor cells [1]; male rats, epinephrine groups, 20 μg/animal s.c. 24 h before inoculation, p<0.001", "result": "significant improvements"}, {"measurement": "reduction of the epinephrine effect on LTR, relation to dosage", "setting": "MADB 106 tumor cells [1]; male rats, epinephrine groups, 0.3-20 μg/animal", "result": "positively correlated with its dosage"}, {"measurement": "MADB 106 LTR, GLA over PBS", "setting": "MADB 106 tumor cells [1]; male rats, epinephrine groups, all GLA doses (0.3-20 μg/animal) s.c. 24 h before tumor inoculation, p<0.0001", "result": "significant improvement"}, {"measurement": "MADB 106 LTR, GLA vs PBS, no-depletion condition", "setting": "MADB 106 tumor cells [1]; male rats, no NK depletion, 2 μg GLA s.c. 24 h before inoculation, p<0.01", "result": "significant difference"}, {"measurement": "dosage giving an additive effect for GLA over SE effects on LTR", "setting": "MADB 106 tumor cells [1]; male rats, s.c. 24 h before inoculation", "result": "≥ 0.7", "unit": "μg per animal"}, {"measurement": "MADB 106 LTR, GLA over PBS", "setting": "MADB 106 tumor cells [1]; male rats, vehicle (no epinephrine) groups, 0.7 μg/animal s.c. 24 h before inoculation, p<0.05", "result": "significant improvement"}, {"measurement": "MADB 106 LTR, GLA over PBS", "setting": "MADB 106 tumor cells [1]; male rats, vehicle (no epinephrine) groups, 2.5 μg/animal s.c. 24 h before inoculation, p<0.01", "result": "significant improvement"}, {"measurement": "MADB 106 LTR, GLA over PBS", "setting": "MADB 106 tumor cells [1]; male rats, vehicle (no epinephrine) groups, 10 μg/animal s.c. 24 h before inoculation, p<0.05", "result": "significant improvement"}, {"measurement": "MADB 106 LTR, GLA over PBS", "setting": "MADB 106 tumor cells [1]; male rats, vehicle (no epinephrine) groups, 20 μg/animal s.c. 24 h before inoculation, p<0.01", "result": "significant improvement"}, {"measurement": "number of lung surface metastases, GLA vs SE", "setting": "MADB 106 tumor cells [2]; p<0.01", "result": "significant difference"}, {"measurement": "number of lung surface metastases, GLA vs PBS", "setting": "MADB 106 tumor cells [2]; p<0.05", "result": "significant difference"}]}]}
